From a melting point compilation (Tetko et al.; mined from patent text by program, amines drawn as free bases though some values may be those of a salt)

| SMILES | melting point |
| --- | --- |
| COc1ccc(N2C(=O)N(c3ccccc3)c3nc(Nc4ccccc4)ncc3C2C(C)C)cc1 (centres undefined) | 229 to 235 °C |
| O=C1CSC(N2CCN=C(c3ccccc3Cl)c3cc(Cl)ccc32)=N1 | 217 to 218 °C |
| CC(C)c1cccc(NC(=N)Nc2cccc(C(C)C)c2)c1 | 118 to 119 °C |
| N#CC1(c2cccc3ccccc23)CCC(=O)CC1 | 166 to 167 °C |
| O=C1Cc2ccc(C3CCCCC3)cc2O1 | 80 to 81 °C |
| CC(C)CNc1cc2nnnn2c2cnccc12 | 220 to 221 °C |
| O=c1c(CCCCO)c(O)c2cccnc2n1-c1ccccc1 | 206 °C |
| CCCCCc1c(C(C)C)nc(C(C)C)c(CO)c1-c1cccc(O)c1 | 121 to 122 °C |
| CC(=O)OC1CCC2(C)C(CCC3C4CCC(C(C)=O)C4(C)CC(=O)C32)C1 (centres undefined) | 130 to 133 °C |
| O=C(O)[C@H](Oc1c(Br)cc(-c2c3ccccc3c(Br)c3sc4ccccc4c23)cc1Br)c1ccccc1 | 135 to 137 °C |
| CNS(=O)(=O)c1cc(C)sc1CC(=O)O | 109 °C |
| Cc1noc(-c2cccc(I)c2)n1 | 102 to 103 °C |
| Cc1ccn2c(-c3ccnc(-c4ccc(OCCN5CCCC5)cc4)c3)c(-c3cccc(C)n3)nc2c1 | 163 °C |
| O=S1(=O)c2cccc3cccc(c23)N1CCCN1CC=C(c2c[nH]c3ccc(O)cc23)CC1 | 214 °C |
| CCOP(=O)(CCc1cn(-c2ccccc2)nc1O)OCC | 121 to 122 °C |
| Cc1ncc2n1-c1ccc(Cl)cc1C(c1ccccc1)=NC2 | 187 to 188 °C |
| O=[N+]([O-])c1ccc(-c2cc3c(Nc4ccc(Cl)cc4F)ncnc3o2)cc1 | 174 to 177 °C |
| Nc1nc2ccccc2c2c1ncn2CCOCCCc1nccs1 | 134 to 135 °C |
| COc1cc(OC)nc(NC(=O)NS(=O)(=O)Cc2ccccc2-c2nnc(SC)o2)n1 | 174 to 177 °C |
| Cc1cc(C#N)sc1Br | 40 to 42 °C |
| Cc1nc2ccc(Cn3ccnc3)cc2nc1Cl | 116 °C |
| c1ccc(COc2ccc3ccc4cccc5ccc2c3c45)cc1 | 105 to 106 °C |
| CCc1nc2nccc(-c3cccnc3)n2n1 | 147 to 149 °C |
| CCCCn1nc2c(N)nc3c(c2c1CCS(=O)(=O)CCC)CCCC3 | 173 to 175 °C |

| SMILES | melting point |
| --- | --- |
| OC1(c2ccccc2)CCN(CCC2COc3ccccc3O2)CC1 (centres undefined) | 142 °C |
| CSC(=NCc1cccc2ccccc12)NCC1CCN(S(=O)(=O)c2cccc3ccccc23)CC1 | 111 to 113 °C |
| CC(C)(C#N)c1cc(-n2cncc2C#N)cc(C(C)(C)C#N)c1 | 88 to 90 °C |
| Cc1ccn2c(CN(C)C)c(-c3ccc4sc(=O)n(C)c4c3)nc2c1 | 167 to 168 °C |
| CCc1ccc2cc(C)c(-n3cncn3)nc2c1 | 72 to 73 °C |
| COCN1C(C)=NC(C)=C(C(=O)NCCCN2CCC(C(=O)OC)(c3ccccc3)CC2)C1c1ccc(F)c(F)c1 (centres undefined) | 53 to 57 °C |
| Cc1cnc2c(C#N)cnn2c1-c1ccc(Cl)cc1 | 154 to 157 °C |
| COc1cc(OC)c2c(C)c(CCN3CCN(c4ccccc4)CC3)c(=O)oc2c1 | 112 to 114 °C |
| Cc1cc(N)nc(C)c1-c1ccccc1 | 105 to 112 °C |
| CCOc1nn(Cc2ccc(OCc3nc(-c4ccccc4)oc3C)cc2)cc1CC(=O)O | 125 to 126 °C |
| N#Cc1ccc(C(O)Cc2ccc(C#N)cc2[N+](=O)[O-])cc1 (centres undefined) | 147 to 153 °C |
| CCN(CC)CCNC(=O)c1cc(Cl)c(N)cc1O | 134 to 136 °C |
| CCNc1cc(-c2c[nH]c(N)n2)ccn1 | 200 to 202 °C |
| COC(=O)C(Sc1ccc(Cl)cc1)c1ccc(I)cc1 (centres undefined) | 44 to 46 °C |
| Cc1cnc(C#N)c(C)c1[N+](=O)[O-] | 66 to 71 °C |
| COc1ccc2c(c1)sc1nc(C)c(CO)n12 | 204 °C |
| Cc1cc(C(=O)c2[nH]c(=O)[nH]c(=O)c2C(C)C)cc([N+](=O)[O-])c1 | 124 to 125 °C |
| Cc1cc(C2=NOC(c3cc(Cl)cc(Cl)c3)(C(F)(F)F)C2)ccc1C(=O)NC1CON(C)C1=O (centres undefined) | 87 °C |
| COc1ccc(CC#N)c2c1OCCO2 | 121 to 125 °C |
| COc1cc(OC)c2c(=O)[nH]c(-c3ccc(OCCN(C(=O)OC(C)(C)C)C(C)C)c(-c4ccc(S(C)=O)cc4)n3)nc2c1 (centres undefined) | 114 to 116 °C |
| ON=C1CCn2c(-c3ccccc3)nc3c(Cl)ccc1c32 | 251 to 252 °C |
| c1ccc(-c2ccc3cc(COc4ccc(CCCn5ccnc5)cc4)cnc3c2)cc1 | 135 to 136 °C |
| CC(C)(C)CC(C)(C)c1cc(N=Nc2cc(C#N)ccc2Cl)c(O)c(C(C)(C)c2ccccc2)c1 | 190 to 191 °C |

The next lines start with the values.

| melting point | SMILES |
| --- | --- |
| 177 to 178 °C | C[C@@H]1CN(C(=O)[C@@](C)(O)C(F)(F)F)[C@@H](C)CN1C(=O)c1ccc(F)cc1 |
| 104 to 108 °C | CC(F)(F)c1cccc(-n2cnc(CO)c2)c1 |
| 158 to 161 °C | CO/N=C(\C(=O)OC)c1nsc(NC(=O)OC)n1 |
| 127 to 130 °C | Cc1cc(C(=O)N2Cc3ccc(C(=O)N(CCO)CCO)n3Cc3ccccc32)ccc1-c1ccccc1C(F)(F)F |
| 148 to 150 °C | NC(=O)c1ccc(C(F)(F)F)c(Br)c1 |
| 128 to 129 °C | COC(=O)c1ccccc1OCC(O)CNCCNC(=O)C(C)C (centres undefined) |
| 266 to 268 °C | O=C1CCC(N2Cc3c(CNC(=O)c4cccc(Cl)c4)cccc3C2=O)C(=O)N1 (centres undefined) |
| 131 to 132 °C | Cc1c(CNCC(C)(C)O)n(C)c2c(C)c(NC(=O)c3ccc(OC[C@@H]4CCCO4)cc3F)ccc12 |
| 84 to 86 °C | CCN(CC1CCCC1)c1nc2c(cc1CN(Cc1cc(C(F)(F)F)cc(C(F)(F)F)c1)c1nnn(C)n1)c(C)nn2C |
| 155 to 158 °C | O=C(O)C(O)=CC(=O)c1ccccc1 |
| 178 °C | CCOC(=O)c1ccc(-c2cnc3c(c2)N(Cc2ccccc2)C(=O)CN3)cc1 |
| 42 to 43 °C | CCONC(CC)=C1C(=O)CC(CCSc2ccc(Cl)cc2)CC1=O (centres undefined) |
| 172 to 174 °C | CC(=O)NNc1ccc(N=C=S)cc1 |
| 148 to 151 °C | NC(=O)CCC1CN(c2ccc(C3=CCN(C=O)CC3)c(F)c2)C(=O)O1 (centres undefined) |
| 238 to 240 °C | CC(=O)Nc1ccc(C)cc1Oc1c([N+](=O)[O-])cc(C(=O)O)cc1S(N)(=O)=O |
| 130 to 131 °C | Cc1nc(-c2ccc(C(F)(F)F)cc2)sc1C(=O)NCc1ccc(OC(C)(C)C(=O)O)cc1 |
| 146 °C | N#CC1c2ccc(Br)cc2CCC1c1ccc(F)cc1 (centres undefined) |
| 115 °C | Cc1c(CCCC=CC(=O)O)cccc1Cc1ccc(Cl)cc1 |
| 172 to 173 °C | O=C(Nc1ccc(OCCN2CCCC2=O)c2ccccc12)c1cc(F)cc(N2CCOCC2)c1 |
| 165 to 166 °C | CC(C)(C)OC(=O)N1CCC(NC(=O)c2ccc(-n3ncc4ccccc43)cc2)CC1 |
| 265 °C | O=C(Oc1ccccc1)c1n[nH]c2c(=O)[nH]c3cc(Cl)ccc3c(=O)c12 |
| 163 to 164 °C | Cc1occ(-c2ccccc2F)c1C(=O)Nc1cccc(CO)c1 |
| 122 to 127 °C | CC(C)(C)c1ccc(CN2CCNC2=O)cc1 |
| 90 to 93 °C | COC(=O)[C@H](CO)NC(=O)[C@H](Cc1ccccc1)NC(=O)OC(C)(C)C |
| 160 °C | CC(C)C(=O)c1ccc(F)cc1O |
| 149 to 150 °C | O=C1CCCCN1C1=CC(CF)(CF)Oc2ccc(C(F)(F)C(F)(F)F)cc21 |

| melting point | SMILES |
| --- | --- |
| 88 to 90 °C | CN1N=C2C(=Cc3ccccc3)CN(C(=O)CCl)CC2C1c1ccccc1 (centres undefined) |
| 140 °C | O=C(c1nc(-c2ccccc2)nc2ccccc12)N1CCCCCC1 |
| > 300 °C | O=C1Nc2ccc(C(F)(F)F)cc2C1c1ncnc2c1cnn2C1CCCCC1 (centres undefined) |
| 214 °C | CS(=O)(=O)c1cc(C(N)Nc2ccccc2C(=O)Nc2cccc(C(F)(F)F)c2)ccn1 (centres undefined) |
| 115 to 117 °C | CS(=O)(=O)c1ccc(-c2nnc(Oc3ccc(F)cc3F)cc2-c2ccc(Cl)cc2)cc1 |
| 150 to 151 °C | CC(=O)NCc1ccc(Oc2ccccc2C(=O)CN2CCN(c3ccncc3)CC2)cc1 |
| 177 to 179 °C | CCn1ncc(C(=O)c2ccc(S(C)(=O)=O)c(C3=NOCC3)c2C)c1OCC(=O)c1ccccc1 |
| 234 to 236 °C | CC(=O)N1CCNC1=NC(c1ccccc1)c1ccccc1 |
| 160 to 161 °C | CC(C)n1nc(-c2sc(NC(=O)Cn3ccnc3)nc2-c2ccccc2)ccc1=O |
| 150 to 152 °C | CC1=C(C(=O)OC(C)C)C(c2cccc([N+](=O)[O-])c2)N(CCCc2ccccc2)C(=O)N1 (centres undefined) |
| 104 to 106 °C | COC(=O)c1cc(C)cnc1C1=NC(C)(C(C)C)C(=O)N1C(=O)c1ccccc1 (centres undefined) |
| 149 to 150 °C | CC(C)(Oc1ccc(C(=O)c2ccc(Cl)cc2)cc1)C(=O)Oc1ccc(I)cc1 |
| 89 to 91 °C | CCOC(=O)C(C#N)(CCCN(C)CCc1cccc(C(=O)OC)c1)c1ccc(OC)c(OC)c1 (centres undefined) |
| 205 to 206 °C | CC(C(=O)O)c1ccc(-c2ccc(O)cc2)cc1 (centres undefined) |
| 46 to 47 °C | Cc1cccc(Cl)c1OC1CN(C(=O)N(C)C)C1 |
| 235 °C | COc1ccc(-c2cc3ccc(C(=O)O)cc3o2)cc1C(C)(C)C |
| 74.7 °C | CCCCCC[C@@H](F)COc1cnc(-c2ccc(CCCCC)c(F)c2F)nc1 |
| 137 to 139 °C | CS(=O)(=O)Nc1ccc(C(=O)NCC23CCCN(CCC2)C3)cc1 |
| 138 to 140 °C | CCN(CC)CC1CCCCN1CCNC(=O)N1c2ccc(Cl)cc2C(=O)Nc2cccnc21 (centres undefined) |
| 87 to 90 °C | CCc1cccc(CC)c1N1C(=S)N(C)C(O)C1O (centres undefined) |
| 67.5 to 68 °C | Nc1ccc(-c2ccc(N)cc2OC(F)(F)F)c(OC(F)(F)F)c1 |
| 98 to 101 °C | CC(C)(C)OC(=O)NC1CCc2ccc(C=O)cc2C1 (centres undefined) |
| > 250 °C | Cc1c(C(N)=O)oc2c(C(=O)O)cccc2c1=O |
| 80.5 to 86.5 °C | NC(Cc1ccc(OCc2ccccc2)cc1)C(=O)Nc1c(F)cc(F)cc1F (centres undefined) |
| 118 to 120 °C | CC1(C)CCC(N2c3ccccc3Oc3ccc(Cl)cc32)=N1 |
| 84 to 85 °C | CCNCCn1c(-c2ccc(Br)cc2)cc2c1CCSC2 |
